Laboratory results reported in a melting point compilation (Tetko et al.; mined from patent text by program, amines drawn as free bases though some values may be those of a salt).

Compound	melting point [°C]
CCCCCC(=O)c1c(CSc2nccn2C)nc2cc(OC)c(OC)cc2c1-c1ccc(OC)c(OC)c1	128 to 129
O=S(=O)(F)c1cc(Cl)c(Cl)cc1Cl	80 to 83
COc1nc2cc(Cl)ccc2c(=O)c2sccc12	195 to 197
O=C(O)/C=C\C(=O)Nc1ccc2c(=O)n3c(nc2c1)C(=Cc1ccccc1)CC3	210 to 230
CSc1nc(O)cc(=O)n1C	198
COP(=O)(OC)[C@@H](O)[C@H](CC1CCCCC1)NC(=O)[C@H](CC(C)C)NC(=O)CCc1ccccc1	157
CCOC(=O)C(=Cc1cccn2cc(-c3ccccc3)nc12)N=[N+]=[N-]	136 to 138
CN(C)C(=O)n1nc(N(C)C)c2ccc(Cl)cc21	65 to 66
O=C1CN2CCOC2(c2ccccc2F)c2cc(I)ccc2N1CCO (stereo unspecified)	160 to 165
Cc1ccccc1S(=O)(=O)c1cc2c(cc1C)OC(C(=O)O)O2 (stereo unspecified)	178 to 180
O=C(c1cccnc1)C(O)c1ccccc1Br (stereo unspecified)	105 to 108
O=C(CCCc1ccccc1)c1c(O)c2cccnc2n(-c2ccccc2)c1=O	200 to 202
CN1CCC(=C2c3ccsc3C(=O)Cn3ccnc32)CC1	153
CC(C)c1cccc(C(C)C)c1OC(=O)c1ccccc1	80 to 81
COc1cc(OCC(O)CN2CCN(c3ccccc3NC(C)=O)CC2)cc(OC)c1OC (stereo unspecified)	128 to 130
COc1cc2cc(C(C)C)sc2c(Cl)c1Cl	< 37
COCCN(CCOC)CC1=Cc2ccsc2S(=O)(=O)N1Cc1ccc(OC)cc1	75 to 77
Cc1nc(NC(=O)c2cnn3c(C(F)(F)F)cc(-c4ccc(Cl)c(Cl)c4)nc23)sc1S(N)(=O)=O	307
CCCCc1c(C(=O)c2ccc(OC)cc2)[nH]c2ccc([N+](=O)[O-])cc12	142
COC(=O)CC(O)/C=C/c1c(-c2ccc(F)cc2)n(C(C)C)c(=O)c2ccccc12 (stereo unspecified)	167 to 168
Nc1ccncc1NC(=S)NCCN1CCC(Nc2nc3ccccc3n2Cc2ccc(F)cc2)C1 (stereo unspecified)	225
O=C(O)CCc1ocnc1-c1ccccc1	142 to 143
CCCCc1ncc(/C=C(\Cc2cccs2)C(=O)O)n1Cc1cccc(OC)c1	170 to 171
CN1CCC(c2cccc3ccc(C(=O)NCCCc4ccc(Cl)cc4)cc23)CC1	132 to 134

Compound	melting point [°C]
COc1ccc(-c2ccc(C(CCC(=O)O)=NO)cc2)cc1	157 to 160
CC(=O)N1CCc2c(c3ccc(-n4ccc(OCc5ccccc5)cc4=O)nc3n2C)C1	206 to 208
NC(=O)c1cccc2c1CC(NCCCc1c[nH]c3ccc(F)cc13)CO2 (stereo unspecified)	153 to 155
NC(=O)c1cccc(-c2cccc3oc(Cc4cccc(C(F)(F)F)c4)cc23)c1	159 to 160
Cc1ccc(C)n1-c1c(SC(F)(F)F)c(C#N)nn1-c1c(Cl)cc(C(F)(F)F)cc1Cl	142 to 144
O=C(O)c1c(F)cc(F)c(F)c1C(=O)O	153 to 155
Cn1c(Oc2ccc(Cl)c(F)c2)nc2c(-c3cccc(C(=O)O)c3)cccc21	283 to 284
CC(C)OC(=O)Nc1ccc(-c2ccnc3c(C(=O)c4cccs4)cnn23)s1	210 to 215
COCOc1cccc(COc2cc3c(cc2-c2cc(C=CC(=O)O)ccc2OC)C(C)(C)CCC3(C)C)c1	144 to 146
COc1cc2ncnc(-c3nnn[nH]3)c2cc1OC	207
O=C(O)Cc1cc(C(=O)c2cc(Cl)ccc2Cl)ccc1O	149
O=C(C=Cc1ccc(CNCC2CCCCC2O)cc1)Nc1ccc(-c2ccc(Cl)cc2)cc1 (stereo unspecified)	210 to 211
COc1ccc2ncc3c(c2c1)[C@@H](O)C(OC)(OC)C[C@@H]3C	135 to 136
CCN(CC)c1nc(C)nc2nc(-c3ccncc3)[nH]c12	228 to 230
O=C(/C=C/c1cccc(C(F)(F)F)c1)NC1CC1	98
CC(C)CCNc1nc2ccccc2cc1[N+](=O)[O-]	99 to 100
COc1cn(-c2ccc(N3CC=CC3)cc2F)nc(-c2ccnn2-c2ccccc2)c1=O	204 to 207
CCOC(=O)c1c(O)c2cc(F)ccc2n(Cc2ccccc2)c1=O	129
COCCC(=O)OC1(C(=O)COC(C)=O)CCC2C3CC(C)C4=CC(=O)C=CC4(C)C3C(O)CC21C (stereo unspecified)	162
C=CCc1c(C)cc(C)cc1O	51
O=C1c2ccccc2-c2c1c1ccccc1c(=O)n2CCCNS(=O)(=O)c1ccc(Br)cc1	241 to 243
Cc1ccc2c(c1C)OCC2c1ccc(C(C)C)cc1 (stereo unspecified)	50 to 51
CCCCCCCCCCCCCCCCCCOc1cccc(N(CC(=O)O)CC(=O)O)c1	130 to 133
Cc1nc2ccccc2c(=O)n1-c1nnn[nH]1	225 to 226

Compound	melting point [°C]
Cc1ccc(-c2[nH]c(-c3cccnc3)nc2C(=O)O)cc1	140 to 142
CC(C)n1cc(C(=O)NCc2ccc(Cl)cc2)c(=O)c2cc(CCCO)sc21	84 to 92
COCCc1nc2c(N)nc3ccccc3c2n1CCCCNC(=O)c1cc2ccccc2cn1	199 to 200
O=C1CC(c2ccccc2Cl)=Nc2c1cccc2C(=O)OCCO	170 to 171
Cc1cccc(Cl)c1Nc1ccccc1CC(=O)O	124 to 125
Fc1ccc(CNc2nc(-n3cnc4ccccc43)nc(-n3cnc4ccccc43)n2)cc1	296 to 298
CN(CCCNc1ccc(C#N)cc1)C1C2CCC1CN(Cc1ccccc1)C2 (stereo unspecified)	91 to 93
O=C1NC(=O)C2(N1)C(=O)N(Cc1ccc(Br)cc1F)c1c(Cl)cccc12 (stereo unspecified)	240 to 241
CCOC(=O)c1cc(C#N)c(C)nc1N1CCCCC1	72 to 74
O=C(c1ccc(Br)cc1)c1ccc2cc[nH]c2c1	47 to 49
CN(C)c1ccc(/C=C/c2c(F)cc(F)cc2F)cc1	127 to 128
CC(CC(=O)NCc1ccccc1)n1c(C(F)(F)F)nc2cc(F)c(-n3c(=O)cc(C(F)(F)F)n(C)c3=O)cc21 (stereo unspecified)	191 to 193
NC1=NC(c2ccc(OC(F)(F)F)cc2)(c2ccc(F)c(N3C=C(F)C=NC3)c2)C2=NCCCN12 (stereo unspecified)	94 to 105
O=C(Nc1cccnc1)c1cc2ccnc(Cl)c2[nH]1	> 320
NC(=S)c1cccc2nnsc12	129 to 131
CN(C)/C=C(\C#N)c1cccc(Br)c1	102 to 105
CN(CCF)c1nc2cc(NC(=O)c3c(C(=O)N4CCC4)cnn3C)ccn2n1	236 to 237
O=C(NC(=O)c1c(F)cccc1Cl)Nc1cnc(Oc2ccc(Cl)c3c2CCCC3)c(Cl)c1	244
COc1ccc(/C=C/c2ccc3cc(C(=O)O)ccc3n2)cc1	274 to 277
O=C(O)CCCCCCCNC(=O)c1ccccc1NC(=O)c1ccccc1O	124 to 125
CCOc1cc(N(C)C)c(Cl)cc1C(=O)NC1CCN(Cc2ccccc2)C1 (stereo unspecified)	112 to 113
CC(C)C[C@H](NC(=O)OCc1ccccc1)C(=O)N[C@@H](C(C)C)[C@@H](O)c1c(-c2ccccc2)c1=O	84 to 94
CC(C)C[C@H](NC(=O)OC(C)(C)C)[C@H](O)CO	58 to 59
